Reference: a compilation of properties of binary mixtures (doi:10.1021/acs.jced.0c00728)

Assay: xn = mol fraction of the nth substance listed
Settings: 100 kPa

CC[n+]1ccn(C)c1.F[B-](F)(F)F + CCC(=O)O
x1 = 1
Settings | speed of sound [m/s]
303.15 K | 1618
313.15 K | 1595
333.15 K | 1550

CCC(=O)O + CC[n+]1ccn(C)c1.F[B-](F)(F)F
speed of sound [m/s]
Settings | 293.15 K | 303.15 K | 313.15 K | 323.15 K | 333.15 K
x2 = 0 | 1171 | 1134 | – | 1060 | 1025
x2 = 0.0497 | 1173 | 1145 | 1111 | 1080 | 1054
x2 = 0.0888 | 1213 | 1187 | 1160 | 1130 | 1105
x2 = 0.1876 | – | 1332 | 1313 | 1291 | 1270
x2 = 0.2982 | 1463 | 1442 | – | 1396 | 1376
x2 = 0.3836 | 1496 | – | 1456 | – | 1415
x2 = 0.4908 | – | 1500 | – | 1457 | –
x2 = 0.5907 | – | 1521 | 1496 | – | 1463
x2 = 0.6891 | – | 1548 | 1524 | 1501 | 1480
x2 = 0.78 | 1593 | 1572 | 1549 | 1525 | 1506
x2 = 0.8899 | 1617 | 1593 | 1571 | – | 1525
x2 = 0.9453 | 1629 | 1607 | 1584 | – | –
